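Grown in 96-well plates, cells were treated for 48 hours with each compound at five concentrations. Insufficient inhibition: endpoint recorded as highest concentration tested. GI50: concentration for 50% inhibition of growth.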 Activity calls are given as the source filed them. Cut-off read from the data, not from the text of the source: active = GI50 up to about 1.1 µM and inactive = higher.
Columns and labels:
Test in all cases: DTP human tumour cell line panel, 48 h
786-0 = tested on: 786-0
A498 = tested on: A498
A549 = tested on: A549
ACHN = tested on: ACHN
BT-549 = tested on: BT-549
CCRF-CEM = tested on: CCRF-CEM
COLO 205 = tested on: COLO 205
DU-145 = tested on: DU-145
EKVX = tested on: EKVX
HCC 2998 = tested on: HCC 2998
HCT-116 = tested on: HCT-116
HCT-15 = tested on: HCT-15
HL-60 = tested on: HL-60
HOP-62 = tested on: HOP-62
HOP-92 = tested on: HOP-92
HT-29 = tested on: HT-29
Hs-578T = tested on: Hs-578T
IGROV-1 = tested on: IGROV-1
K562 = tested on: K562
KM12 = tested on: KM12
LOX IMVI = tested on: LOX IMVI
M14 = tested on: M14
MCF7 = tested on: MCF7
MDA-MB-231 = tested on: MDA-MB-231
MDA-MB-435 = tested on: MDA-MB-435
MDA-N = tested on: MDA-N
MOLT-4 = tested on: MOLT-4
Malme-3M = tested on: Malme-3M
NCI-H226 = tested on: NCI-H226
NCI-H23 = tested on: NCI-H23
NCI-H460 = tested on: NCI-H460
NCI-H522 = tested on: NCI-H522
NCI/ADR-RES = tested on: NCI/ADR-RES
OVCAR-3 = tested on: OVCAR-3
OVCAR-4 = tested on: OVCAR-4
OVCAR-5 = tested on: OVCAR-5
OVCAR-8 = tested on: OVCAR-8
PC-3 = tested on: PC-3
RPMI-8226 = tested on: RPMI-8226
RXF 393 = tested on: RXF 393
SF-268 = tested on: SF-268
SF-295 = tested on: SF-295
SF-539 = tested on: SF-539
SK-MEL-28 = tested on: SK-MEL-28
SK-MEL-5 = tested on: SK-MEL-5
SK-OV-3 = tested on: SK-OV-3
SN12C = tested on: SN12C
SNB-19 = tested on: SNB-19
SNB-75 = tested on: SNB-75
SR = tested on: SR
SW-620 = tested on: SW-620
T47D = tested on: T47D
TK-10 = tested on: TK-10
U-251 = tested on: U-251
UACC-257 = tested on: UACC-257
UACC-62 = tested on: UACC-62
UO-31 = tested on: UO-31
CAKI-1 = tested on: CAKI-1
SK-MEL-2 = tested on: SK-MEL-2

For O=C(Nn1c(-c2ccccc2)nc2ccccc2c1=O)c1ccc([N+](=O)[O-])cc1, the GI50 (786-0) was > 100 µM (inactive), the GI50 (A498) was 46.7 µM (inactive) and the GI50 (A549) was > 100 µM (inactive). The GI50 (ACHN) was > 100 µM (inactive), the GI50 (BT-549) was 55.7 µM (inactive) and the GI50 (CCRF-CEM) was > 100 µM (inactive). The GI50 (COLO 205) was > 100 µM (inactive), the GI50 (DU-145) was > 100 µM (inactive) and the GI50 (EKVX) was > 100 µM (inactive). The GI50 (HCC 2998) was > 100 µM (inactive), the GI50 (HCT-116) was > 10 µM (inactive) and the GI50 (HCT-15) was over 100 µM. For the same molecule, the GI50 (HL-60) was > 100 µM (inactive), the GI50 (HOP-62) was > 100 µM (inactive) and the GI50 (HOP-92) was 32.4 µM (inactive). The GI50 (HT-29) was > 100 µM (inactive), the GI50 (Hs-578T) was > 100 µM (inactive) and the GI50 (IGROV-1) was > 100 µM (inactive). For the same molecule, the GI50 (K562) was > 100 µM (inactive), the GI50 (KM12) was > 100 µM (inactive) and the GI50 (LOX IMVI) was > 100 µM (inactive). The GI50 (M14) was > 100 µM (inactive), the GI50 (MCF7) was 58.7 µM (inactive) and the GI50 (MDA-MB-231) was > 100 µM (inactive). For the same molecule, the GI50 (MDA-MB-435) was > 100 µM (inactive), the GI50 (MDA-N) was > 100 µM (inactive) and the GI50 (MOLT-4) was > 100 µM (inactive). For the same molecule, the GI50 (Malme-3M) was > 100 µM (inactive), the GI50 (NCI-H226) was 46.3 µM (inactive) and the GI50 (NCI-H23) was > 100 µM (inactive). The GI50 (NCI-H460) was > 100 µM (inactive), the GI50 (NCI-H522) was > 100 µM (inactive) and the GI50 (NCI/ADR-RES) was > 100 µM (inactive). For the same molecule, the GI50 (OVCAR-3) was > 100 µM (inactive), the GI50 (OVCAR-4) was > 100 µM (inactive) and the GI50 (OVCAR-5) was > 100 µM (inactive). The GI50 (OVCAR-8) was > 100 µM (inactive), the GI50 (PC-3) was > 100 µM (inactive) and the GI50 (RPMI-8226) was > 100 µM (inactive). The GI50 (RXF 393) was 49.2 µM (inactive), the GI50 (SF-268) was > 100 µM (inactive) and the GI50 (SF-295) was > 100 µM (inactive). The GI50 (SF-539) was > 100 µM (inactive), the GI50 (SK-MEL-28) was 72.3 µM (inactive) and the GI50 (SK-MEL-5) was 64.1 µM (inactive). The GI50 (SK-OV-3) was > 100 µM (inactive), the GI50 (SN12C) was > 100 µM (inactive) and the GI50 (SNB-19) was > 100 µM (inactive). For the same molecule, the GI50 (SNB-75) was > 100 µM (inactive), the GI50 (SR) was > 100 µM (inactive) and the GI50 (SW-620) was > 100 µM (inactive). The GI50 (T47D) was > 100 µM (inactive), the GI50 (TK-10) was > 100 µM (inactive) and the GI50 (U-251) was > 100 µM (inactive). For the same molecule, the GI50 (UACC-257) was > 100 µM (inactive), the GI50 (UACC-62) was 45.2 µM (inactive) and the GI50 (UO-31) was > 100 µM (inactive).

In the case of O=C1CSC2(CC(/C=C/c3ccccc3[N+](=O)[O-])=NN2c2cccc(S(=O)(=O)O)c2)N1c1nc2ccccc2s1 (configuration not stated), the GI50 (786-0) is reported as 12.3 µM (inactive), the GI50 (A498) is reported as 18.2 µM (inactive) and the GI50 (A549) is reported as 18.7 µM (inactive). For the same molecule, the GI50 (ACHN) was 17.1 µM (inactive), the GI50 (BT-549) was 17.3 µM (inactive) and the GI50 (CAKI-1) was 32.7 µM (inactive). The GI50 (CCRF-CEM) was 17.9 µM (inactive), the GI50 (COLO 205) was 33.1 µM (inactive) and the GI50 (DU-145) was 12.5 µM (inactive). The GI50 (EKVX) was 32.3 µM (inactive), the GI50 (HCC 2998) was 30.3 µM (inactive) and the GI50 (HCT-116) was 21.3 µM (inactive). The GI50 (HCT-15) was 17 µM, the GI50 (HL-60) was 21.7 µM (inactive) and the GI50 (HOP-92) was 25.5 µM (inactive). The GI50 (HT-29) was 23.8 µM (inactive), the GI50 (Hs-578T) was 22.3 µM (inactive) and the GI50 (IGROV-1) was 15.3 µM (inactive). For the same molecule, the GI50 (K562) was 19.5 µM (inactive), the GI50 (KM12) was 15.5 µM (inactive) and the GI50 (LOX IMVI) was 16.4 µM (inactive). For the same molecule, the GI50 (M14) was 20.7 µM (inactive), the GI50 (MCF7) was 12.5 µM (inactive) and the GI50 (MDA-MB-231) was 15.9 µM (inactive). For the same molecule, the GI50 (MDA-MB-435) was 14.8 µM (inactive), the GI50 (MDA-N) was 17.9 µM (inactive) and the GI50 (MOLT-4) was 15.7 µM (inactive). The GI50 (Malme-3M) was 24.4 µM (inactive), the GI50 (NCI-H226) was 16.8 µM (inactive) and the GI50 (NCI-H23) was 16.9 µM (inactive). For the same molecule, the GI50 (NCI-H460) was 17 µM (inactive), the GI50 (NCI-H522) was 11.6 µM (inactive) and the GI50 (NCI/ADR-RES) was 21.5 µM (inactive). For the same molecule, the GI50 (OVCAR-4) was 15.3 µM (inactive), the GI50 (OVCAR-5) was 19.3 µM (inactive) and the GI50 (OVCAR-8) was 15.3 µM (inactive). The GI50 (PC-3) was 15.3 µM (inactive), the GI50 (RPMI-8226) was 16.8 µM (inactive) and the GI50 (RXF 393) was 23.8 µM (inactive). For the same molecule, the GI50 (SF-268) was 16.8 µM (inactive), the GI50 (SF-539) was 23.5 µM (inactive) and the GI50 (SK-MEL-28) was 38 µM (inactive). For the same molecule, the GI50 (SK-MEL-2) was 15.2 µM (inactive), the GI50 (SK-MEL-5) was 25.4 µM (inactive) and the GI50 (SN12C) was 20.3 µM (inactive). The GI50 (SNB-19) was 15.5 µM (inactive), the GI50 (SNB-75) was 15.3 µM (inactive) and the GI50 (SR) was 20.2 µM (inactive). The GI50 (SW-620) was 22.6 µM (inactive), the GI50 (T47D) was 12.8 µM (inactive) and the GI50 (TK-10) was 15.1 µM (inactive). For the same molecule, the GI50 (U-251) was 14.5 µM (inactive), the GI50 (UACC-257) was 37.2 µM (inactive) and the GI50 (UACC-62) was 13.6 µM (inactive). The GI50 (UO-31) was 14.2 µM (inactive).
